Structures can show the parent of a compound that is named as a salt.
Key:
[1] = target: T1, rat FAAH (Rattus norvegicus, UniProt P97612); assay: Assay Method 2: FAAH assay, 3H-anandamide hydrolysis in homogenate of SK-N-MC cells transfected with rat FAAH; format: biochemical; details: average of results, > = solubility limit or highest concentration tested
T1 sequence (P97612 1-579): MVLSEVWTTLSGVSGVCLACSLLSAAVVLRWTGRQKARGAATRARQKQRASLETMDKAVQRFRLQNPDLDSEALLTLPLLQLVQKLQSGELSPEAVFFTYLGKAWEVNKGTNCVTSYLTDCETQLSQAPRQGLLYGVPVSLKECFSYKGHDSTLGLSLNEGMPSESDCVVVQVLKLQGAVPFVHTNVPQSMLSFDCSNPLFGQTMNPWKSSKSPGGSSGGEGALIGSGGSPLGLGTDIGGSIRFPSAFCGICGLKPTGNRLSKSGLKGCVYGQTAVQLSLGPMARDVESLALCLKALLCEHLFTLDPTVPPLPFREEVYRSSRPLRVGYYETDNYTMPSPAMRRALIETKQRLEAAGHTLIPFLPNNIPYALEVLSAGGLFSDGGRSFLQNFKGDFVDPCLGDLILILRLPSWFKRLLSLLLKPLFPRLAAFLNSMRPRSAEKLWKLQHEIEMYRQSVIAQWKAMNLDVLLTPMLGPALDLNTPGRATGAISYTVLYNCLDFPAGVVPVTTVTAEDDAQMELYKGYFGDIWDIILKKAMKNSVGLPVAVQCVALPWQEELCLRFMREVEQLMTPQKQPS
In short: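 Read-out is scintillation counting of [3H]-ethanolamine passing through activated charcoal, after 1 h at rt with 80 nM final [3H]-AEA. Enzyme source: lysate of G418-selected SK-N-MC clones expressing rat FAAH, homogenized in Tris/EDTA/glycerol/0.02% Triton buffer, pH 9.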

[2] = target: T2, FAAH (Homo sapiens, UniProt O00519); assay: Assay Method 1: FAAH assay, 3H-anandamide hydrolysis in homogenate of T84 cells or SK-N-MC cells transfected with human FAAH; format: biochemical; details: average of results, > = solubility limit or highest concentration tested
T2 sequence (O00519 1-579): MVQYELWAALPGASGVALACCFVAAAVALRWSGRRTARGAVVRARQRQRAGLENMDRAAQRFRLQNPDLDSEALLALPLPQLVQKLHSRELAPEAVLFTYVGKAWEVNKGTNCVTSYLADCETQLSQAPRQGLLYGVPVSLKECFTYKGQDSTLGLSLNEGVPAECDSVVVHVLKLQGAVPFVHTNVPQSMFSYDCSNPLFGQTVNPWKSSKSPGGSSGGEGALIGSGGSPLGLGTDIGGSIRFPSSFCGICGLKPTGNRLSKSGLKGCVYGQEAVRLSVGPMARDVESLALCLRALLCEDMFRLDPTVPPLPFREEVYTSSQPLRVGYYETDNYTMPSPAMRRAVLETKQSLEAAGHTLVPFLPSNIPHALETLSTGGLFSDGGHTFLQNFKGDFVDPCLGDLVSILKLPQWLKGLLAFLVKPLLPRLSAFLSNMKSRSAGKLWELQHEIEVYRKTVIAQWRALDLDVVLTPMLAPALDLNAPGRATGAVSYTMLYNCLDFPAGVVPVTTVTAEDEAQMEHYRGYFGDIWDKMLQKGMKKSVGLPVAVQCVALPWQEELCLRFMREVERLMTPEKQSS
In short: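 Hydrolysis of ^3H-anandamide (80 nM final, added last) was measured over 1 h at rt, using test compound with homogenate of T84 cells or human FAAH-transfected SK-N-MC cells. The homogenization buffer was 125 mM Tris, 1 mM EDTA, 0.02% Triton X-100, pH 9. Unbound labelled ethanolamine was passed through charcoal filters and scintillation-counted.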

Structure (SMILES) | IC50 [1] | IC50 [2]
COC(=O)Cc1ccccc1C#Cc1cccc(CN2CCN(C(=O)Nc3noc4ccccc34)CC2)c1 [Example 93, Methyl {2-[(3-{[4-(1,2-benzisoxazol-3-ylcarbamoyl)piperazin-1-yl]methyl}phenyl)ethynyl]phenyl}acetate] | 225 nM | 102 nM
O=C(Nc1ccc2nn[nH]c2c1)N1CCN(Cc2ccc3c(c2)OC(F)(F)O3)CC1 [Example 6, 4-(2,2-Difluoro-benzo[1,3]dioxol-5-ylmethyl)-piperazine-1-carboxylic acid (3H-benzotriazol-5-yl)-amide trifluoroacetic acid salt] | 352 nM | 308 nM
O=C(Nc1nn[nH]n1)N1CCN(Cc2cccc(Oc3ccc4c(c3)OC(F)(F)O4)c2)CC1 [Example 189, 4-{3-[(2,2-Difluoro-1,3-benzodioxol-5-yl)oxy]benzyl}-N-2H-tetrazol-5-ylpiperazine-1-carboxamide] | 17 nM | 70 nM
O=C(Nc1ccon1)N1CCN(Cc2cccc(Oc3cccc(C(F)(F)F)c3)c2)CC1 [Example 48, 4-[3-(3-Trifluoromethyl-phenoxy)-benzyl]-piperazine-1-carboxylic acid isoxazol-3-ylamide trifluoroacetic acid salt] | 49 nM | 627 nM
O=C(Nc1cc[nH]n1)N1CCN(Cc2ccc(F)c(Oc3ccccc3)c2)CC1 [Example 56, 4-(4-Fluoro-3-phenoxy-benzyl)-piperazine-1-carboxylic acid (1H-pyrazol-3-yl)-amide trifluoroacetic acid salt] | 550 nM | 1500 nM
O=C(Nc1noc2ccccc12)N1CCN(Cc2cccc(Oc3ccc4ccccc4c3)c2)CC1 [Example 119, N-1,2-Benzisoxazol-3-yl-4-[3-(naphthalen-2-yloxy)benzyl]piperazine-1-carboxamide] | 9 nM | 45 nM
O=C(Nc1cnccn1)N1CCN(Cc2cccc(Oc3ccc(F)c(C(F)(F)F)c3)c2)CC1 [Example 241, 4-{3-[4-Fluoro-3-(trifluoromethyl)phenoxy]benzyl}-N-pyrazin-2-ylpiperazine-1-carboxamide] | 370 nM | 8 nM
O=C(Nc1noc2ccccc12)N1CCN(Cc2cccc(C#Cc3ccccc3Cl)c2)CC1 [Example 72, N-1,2-Benzisoxazol-3-yl-4-{3-[(2-chlorophenyl)-ethynyl]benzyl}-piperazine-1-carboxamide] | 30 nM | 24 nM
N#Cc1cccc(Oc2cccc(CN3CCN(C(=O)Nc4ccon4)CC3)c2)c1 [Example 139, 4-[3-(3-Cyanophenoxy)benzyl]-N-isoxazol-3-ylpiperazine-1-carboxamide] | > 10000 nM | 860 nM
O=C(Nc1noc2ccccc12)N1CCN(Cc2cccc(Oc3cc(F)cc(F)c3)c2)CC1 [Example 34, 4-[3-(3,5-Difluoro-phenoxy)-benzyl]-piperazine-1-carboxylic acid benzo[d]isoxazol-3-ylamide trifluoroacetic acid salt] | 190 nM | 152 nM
O=C(Nc1ccon1)N1CCN(Cc2cccc(Oc3cccc(OC(F)(F)F)c3)c2)CC1 [Example 159, N-Isoxazol-3-yl-4-{3-[3-(trifluoromethoxy)phenoxy]benzyl}piperazine-1-carboxamide] | 300 nM | 50 nM
O=C(Nc1noc2ccccc12)N1CCC(Cc2cccc(C(F)(F)F)c2)CC1 [Example 27, 4-(3-Trifluoromethyl-benzyl)-piperidine-1-carboxylic acid benzo[d]isoxazol-3-ylamide] | 47 nM | 77 nM
COc1ccc(NC(=O)N2CCN(Cc3cccc(Oc4ccc(Cl)cc4)c3)CC2)nn1 [Example 104, 4-[3-(4-Chlorophenoxy)benzyl]-N-(6-methoxypyridazin-3-yl)piperazine-1-carboxamide] | 690 nM | 37 nM
O=C(Nc1cnccn1)N1CCN(Cc2cccc(Oc3ccccc3)c2)CC1 [Example 227, 4-(3-Phenoxy-benzyl)-piperazine-1-carboxylic acid pyrazin-2-ylamide] | 5300 nM | 400 nM
O=C(Nc1noc2ccccc12)N1CCN(Cc2cccc(C#CC3CCCC3)c2)CC1 [Example 71, N-1,2-Benzisoxazol-3-yl-4-[3-(cyclopentylethynyl)benzyl]-piperazine-1-carboxamide] | 50 nM | 13 nM
O=C(Nc1cccc2ncccc12)N1CCC(Cc2ccc3ccccc3c2)CC1 [Example 20, 4-Naphthalen-2-ylmethyl-piperidine-1-carboxylic acid quinolin-5-ylamide trifluoroacetic acid salt] | 250 nM | 935 nM
O=C(Nc1cnccn1)N1CCN(Cc2ccc3[nH]ccc3c2)CC1 [Example 216, 4-(1H-Indol-5-ylmethyl)-N-pyrazin-2-ylpiperazine-1-carboxamide] | > 10000 nM | > 10000 nM
O=C(Nc1noc2ccccc12)N1CCN(Cc2cccc(C#Cc3cccc(Cl)c3Cl)c2)CC1 [Example 90, N-1,2-Benzisoxazol-3-yl-4-{3-[(2,3-dichlorophenyl)ethynyl]benzyl}-piperazine-1-carboxamide] | 815 nM | 195 nM
O=C(Nc1cccc2nsnc12)N1CCN(Cc2ccc3c(c2)OC(F)(F)O3)CC1 [Example 4, 4-(2,2-Difluoro-benzo[1,3]dioxol-5-ylmethyl)-piperazine-1-carboxylic acid benzo[1,2,5]thiadiazol-4-ylamide trifluoroacetic acid salt] | 260 nM | 59 nM
O=C(Nc1noc2ccccc12)N1CCN(Cc2cccc(OC(F)(F)F)c2)CC1 [Example 52, 4-(3-Trifluoromethoxy-benzyl)-piperazine-1-carboxylic acid benzo[d]isoxazol-3-ylamide trifluoroacetic acid salt] | 322 nM | 74 nM
O=C(Nc1nnn[nH]1)N1CCN(Cc2cccc(Oc3ccc(Cl)c(Cl)c3)c2)CC1 [Example 174, 4-[3-(3,4-Dichlorophenoxy)benzyl]-N-1H-tetrazol-5-ylpiperazine-1-carboxamide] | 30 nM | 100 nM
O=C(Nc1noc2ccccc12)N1CCN(Cc2ccc3ccccc3c2)CC1 [Example 123, 4-Naphthalen-2-ylmethyl-piperazine-1-carboxylic acid benzo[d]isoxazol-3-ylamide] | 40 nM | 20 nM
O=C(Nc1noc2ccccc12)N1CCC(Cc2ccc3ccccc3c2)CC1 [Example 21, 4-Naphthalen-2-ylmethyl-piperidine-1-carboxylic acid benzo[d]isoxazol-3-ylamide] | 7 nM | 43 nM
O=C(Nc1cnccn1)N1CCN(Cc2cccc(Oc3ccc(Cl)c(Cl)c3)c2)CC1 [Example 59, 4-[3-(3,4-Dichloro-phenoxy)-benzyl]-piperazine-1-carboxylic acid pyrazin-2-ylamide trifluoroacetic acid salt] | 22 nM | 270 nM
O=C(Nc1ccc(Cl)nn1)N1CCN(Cc2ccc(F)c(Oc3ccccc3)c2)CC1 [Example 45, 4-(4-Fluoro-3-phenoxy-benzyl)-piperazine-1-carboxylic acid (6-chloro-pyridazin-3-yl)-amide trifluoroacetic acid salt] | 410 nM | 1500 nM
O=C(Nc1cnccn1)N1CCN(Cc2cccc(Oc3ccc(OCC(F)(F)F)cc3)c2)CC1 [Example 214, N-Pyrazin-2-yl-4-{3-[4-(2,2,2-trifluoroethoxy)phenoxy]benzyl}-piperazine-1-carboxamide] | 90 nM | 15 nM
CS(=O)(=O)c1ccc(CN2CCN(C(=O)Nc3noc4ccccc34)CC2)cc1 [Example 102, N-1,2-Benzisoxazol-3-yl-4-[4-(methylsulfonyl)benzyl]piperazine-1-carboxamide] | > 10000 nM | > 10000 nM
